Measured values: patent US5648366A, “Substituted pyrrolidin-3-yl-alkyl-piperidines” (Merrell Pharmaceuticals Inc., priority 1995, dated 1997)
Where a name gives a salt, the structure may show the parent alone.

Experiments:
[1] = target: T1, NK1 receptor (Homo sapiens, UniProt P25103); test: Antagonism of NK1 receptor mediated (SP-induced) phosphatidylinositol turnover in UC11 cells; format: cell-based; details: UC11 cells, SP; for NK-1 RECEPTOR -SLOPE: Schild analysis; for NK-1 RECEPTOR pA2: Schild analysis of 2-3 experiments, 95% confidence limits on next line
T1 construct: endogenous in cells; host or cells: UC11 cells
T1 sequence (P25103 whole entry): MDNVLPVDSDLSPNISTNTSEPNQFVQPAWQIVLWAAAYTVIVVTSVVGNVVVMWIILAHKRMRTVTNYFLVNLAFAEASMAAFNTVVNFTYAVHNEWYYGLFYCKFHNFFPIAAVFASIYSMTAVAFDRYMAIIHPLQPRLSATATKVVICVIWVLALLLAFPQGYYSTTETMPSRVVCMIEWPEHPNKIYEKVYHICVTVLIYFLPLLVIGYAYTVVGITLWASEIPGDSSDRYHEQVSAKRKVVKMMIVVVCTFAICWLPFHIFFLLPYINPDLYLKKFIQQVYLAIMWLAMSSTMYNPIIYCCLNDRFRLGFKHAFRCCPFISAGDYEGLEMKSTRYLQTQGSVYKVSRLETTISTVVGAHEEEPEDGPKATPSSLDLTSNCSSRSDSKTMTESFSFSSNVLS
Description: (§1) ANTAGONISM OF NK1 AND NK2 RECEPTOR MEDIATED PHOSPHATID[…]
(§2) Tachykinin-mediated inositol phosphate accumulation was measured in UC11 or SKLKB82#3 cells in the presence and absence of NK1 or NK2 receptor antagonists, respectively. Tissues were incubated in Krebs-Henseleit buffer at 37° C. with 95% O2 -5% CO2 gassing. Tissues were then incubated with fresh buffer containing 100 μCi of myo-[2-^3 H(N)] inositol at 37° C. for 60 min with gentle gassing. After washing twice in 5 ml room temperature buffer containing 10 mM LiCl, tissues were incubated for 30 min at room temperature with a buffer change at 15 min. Buffer was removed and Krebs-Henseleit buffer (containing 40 μg/ml bacitracin, 4 μg/ml each of leupeptin and chymostatin, 0.1% bovine serum albumin and 10 mM each of thiorphan and LiCl) added. After 15 min, SP was added to UC11 cells or NKA to SKLKB82#3 cells at various concentrations to start the reaction. After incubation for 60 min at room temperature the reaction was terminated by addition of 930 μl chloroform: methanol (1:2 by volume) to each tube, followed by 310 μl chloroform and 310 μl doubly distilled water. Samples were vortexed, centrifuged, and 0.9 ml of the aqueous (top) phase removed and added to 2 ml ddH2 O. The mixture was vortexed and loaded onto a 50% Bio-Rad AG 1-X8 (formate form, 100-200 mesh) exchange column (Bio-Rad Laboratories, Hercules, Calif.). The columns were washed, in order, with: 1) 10 ml doubly distilled water, 2) 5 ml of 5 mM disodium tetraborate/60 mM sodium formate, and 3) 5 ml of 1M ammonium formate/0.1M formic acid. The third elution was collected and 1 ml counted in 7 ml scintillation fluid. A 50 μl aliquot of the organic (bottom) phase was removed, dried in a scintillation vial and counted in 7 ml scintillation fluid.
(§3) The ratio of DPM in the aqueous phase aliquot (total inositol phosphates) to the DPM in the 50 μl organic phase aliquot (total [^3 H]inositol incorporated) was calculated for each sample. Data are expressed as a percent of agonist-induced accumulation of [^3 H]-inositol phosphates over basal levels. The ratios in the presence of test compound and/or standards were compared to the ratios for control samples (i.e. no stimulating agonist). Dose-response graphs were constructed and the abilities of the test compounds to inhibit tachykinin-induced phosphatidyinositol turnover determined with the aid of a computer program. […] Data is expressed as percent stimulation of total inositol phosphate accumulation over basal levels and normalized to the maximum response produced by SP. […] Schild analysis is performed using dose response curves (such as those presented in FIGS. 1a and 1b) to obtain a value indicative of the strength of a competitive antagonist and is expressed as the pA2, which is the negative logarithm of the molar concentration of antagonist which reduces the effect of a dose of agonist to one-half of that expected at the dose of agonist.

[2] = target: T2, NK2 receptor (Bos taurus, UniProt P05363); test: Antagonism of NK2 receptor mediated (NKA-induced) phosphatidylinositol turnover in SKLKB82#3 cells; format: cell-based; details: SKLKB82#3 cells, NKA; for NK-2 RECEPTOR -SLOPE: Schild analysis; for NK-2 RECEPTOR pA2: Schild analysis of 2-3 experiments, 95% confidence limits on next line
T2 construct: expressed in transfected cells; host or cells: SKLKB82#3 cells (murine B82 fibroblasts by own knowledge)
T2 sequence (P05363 1-384): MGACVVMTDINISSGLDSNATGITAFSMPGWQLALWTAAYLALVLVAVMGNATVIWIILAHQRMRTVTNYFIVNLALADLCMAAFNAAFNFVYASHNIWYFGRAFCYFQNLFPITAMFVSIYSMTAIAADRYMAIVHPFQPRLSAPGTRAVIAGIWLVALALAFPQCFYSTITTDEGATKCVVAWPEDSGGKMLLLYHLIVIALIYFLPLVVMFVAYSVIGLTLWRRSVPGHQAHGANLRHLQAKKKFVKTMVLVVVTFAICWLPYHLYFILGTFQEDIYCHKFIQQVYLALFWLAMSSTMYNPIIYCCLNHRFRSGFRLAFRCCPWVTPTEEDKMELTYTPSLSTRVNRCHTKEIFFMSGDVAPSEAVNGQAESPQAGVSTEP
Description: as §1, §2, §3

[3] = tested on: NK1 and NK2 receptors; test: Antagonism of capsaicin aerosol induced respiratory effects in conscious guinea pigs; format: in vivo, guinea pig; details: for SRE NUMBER (coughs/gasps): 19 min capsaicin exposure; for SRE NUMBER (coughs/gasps) / DYSPNEA ONSET / MAXIMUM PRESSURE INCREASE: mean and SEM; for DYSPNEA INCIDENCE / DYSPNEA ONSET / MAXIMUM PRESSURE INCREASE: capsaicin aerosol 0.001%; for antagonism of effects of capsaicin aerosol (in words): administered orally; for inhibition of endogenous tachykinins released by capsaicin aerosol (in words): guinea pig, in vivo
Description: (§4) ANTAGONISM OF NKA AND CAPSAICIN INDUCED R[…] IN CONSCIOUS GUINEA PIGS
(§5) In vivo experiments were performed using male Duncan Hartley guinea pigs (250-350 g). Changes in conscious breathing patterns were monitored in four animals simultaneously using modified whole body plethysmography consisting of four small plexiglass boxes each connected to a reference box via Validyne DP 45-16 differential pressure transducers. The 4 boxes were equipped with an air supply line (also used for aerosol delivery) and an exhaust air line. Supply and exhaust lines were of the same length and narrow bore and arose from a common supply chamber and vented to a common exhaust chamber. This system was used to ensure that fluctuations in supply air and atmospheric pressure would remain in phase and be eliminated from the net signal by the differential pressure transducers. The analog pressure signals were digitalized via a Data Translation DT2821 A to D board. Data were collected at a rate of 100 samples/second/animal. Each cycle of pressure change was analyzed using the following parameters: rising and falling slope determined between minimum and maximum pressures, the ratio of rising over falling slope, and the magnitude of the change between initial trough pressure and peak cycle pressure. Using these values (and observing the animals) the pressure cycles were characterized into normal breaths, forced exhalations (apparent by abdominal heaving), significant respiratory events (SREs; usually coughs, less often sneezes or gasps which were characterized by transient, extremely large pressure increases which were distinguishable from noise) and movement/noise with a PCAT 286 running a System V UNIX operating system. Dyspnea was defined as a significant, sustained increase in plethysmograph pressure which was associated with an observable shift to labored breathing in the animal.
(§6) During the course of a typical experiment in which airway responsiveness to various bronchoconstricting agents was examined, aerosols were delivered for 19 min (0.33 ml/min) using a DeVilbiss Ultraneb 99 ultrasonic nebulizer and animals monitored during this time. Prior to nebulization, 1 min of resting breathing was collected to establish a baseline pressure. […] The vehicle for nebulization of all bronchoconstrictive agents was phosphate buffered saline (pH 7.4) which elicited no r[…] itself. Putative tachykinin antagonists were administered either (i.v.) 20 min prior to onset of aerosol exposure or orally 1 hour prior to onset (to guinea pigs after an overnight fast).
Capsaicin aerosol is known to promote release of the tachykinins SP and NKA from sensory nerves in the airways of guinea pigs which may then act upon NK1 and NK2 receptors, respectively to elicit r[…]. The ability of the compounds of Example 3A; and Example 20A to attenuate capsaicin-induced r[…], shown in Table 7a, is inferred from their ability to reduce incidence of dyspnea, prolong the onset of the response and reduce the number of coughs/gasps which occur during aerosol exposure.

[4] = tested on: NK2 receptor; test: Antagonism of NKA aerosol induced respiratory effects in conscious guinea pigs; format: in vivo, guinea pig; details: 20 min prior to NKA aerosol (0.05%); for DYSPNEA ONSET: mean and SEM
Description: as §4, §5, §6
Table 6 illustrates the effects of the compounds of Example 3; Example 20A; and Example 5A on r[…] induced by NKA aerosol. […] These effects were dose dependent i.e. the higher the dose of compound, the greater attenuation of NKA-mediated effects.

[5] = 25 mg/kg oral gavage 1 hr prior
[6] = 50 mg/kg oral gavage 1 hr prior
[7] = 100 mg/kg oral gavage 1 hr prior

SMILES | NK-1 RECEPTOR -SLOPE [1] | NK-1 RECEPTOR pA2 [1] | NK-2 RECEPTOR -SLOPE [2] | NK-2 RECEPTOR pA2 [2] | SRE NUMBER (coughs/gasps) [3, 5] | DYSPNEA INCIDENCE [3, 5] [%] | DYSPNEA ONSET [3, 5] [s] | MAXIMUM PRESSURE INCREASE [3, 5] [mmH2 O] | SRE NUMBER (coughs/gasps) [3, 6] | DYSPNEA INCIDENCE [3, 6] [%] | DYSPNEA ONSET [3, 6] [s] | MAXIMUM PRESSURE INCREASE [3, 6] [mmH2 O] | antagonism of effects of capsaicin aerosol (in words) [3] | inhibition of endogenous tachykinins released by capsaicin aerosol (in words) [3] | further results
COc1cc(C(=O)N2CCC(CCN3CCC(C(N)=O)(c4ccccc4)CC3)(c3ccc(Cl)c(Cl)c3)C2)cc(OC)c1OC (racemic) [Example 3A, 1-[2-[3-(3,4-dichloro-phenyl)-1-(3,4,5-trimethoxy-benzoy1)-pyrrolidin-3-yl]-ethyl]-4-phenyl-piperidine-4-carboxylic acid amide hydrochloride] | 0.90 | 7.91 | 0.73 | 8.75 | 4.6 ± 1.0 | 80 | 424 ± 120 | 0.7 ± 0.2 | 2.8 ± 0.8 | 70 | 434 ± 152 | 0.4 ± 0.1 | antagonize the effects of capsaicin aerosol when administered orally | inhibit the endogenous tachykinins released by capsaicin aerosol | SRE NUMBER (coughs/gasps) ([3]; 10 mg/kg intravenous): 8.50 ± 1.9; DYSPNEA INCIDENCE ([3]; 10 mg/kg intravenous): 89%; DYSPNEA ONSET ([3]; 10 mg/kg intravenous): 480 ± 80 s; MAXIMUM PRESSURE INCREASE ([3]; 10 mg/kg intravenous): 0.83 ± 0.18 mmH2 O; SRE NUMBER (coughs/gasps) [3, 7]: 2.1 ± 0.5; DYSPNEA INCIDENCE [3, 7]: 50%; DYSPNEA ONSET [3, 7]: 360 ± 120 s; MAXIMUM PRESSURE INCREASE [3, 7]: 0.4 ± 0.1 mmH2 O
COc1cc(C(=O)N2CCC(CCN3CCC(C(N)=O)(c4ccccc4)CC3)(c3ccc(Cl)c(Cl)c3)C2)cc(OC)c1OC (single isomer, unassigned; (+)) [Example 20, (+)-1-[2-[3-(3,4-dichloro-phenyl)-1-(3,4,5-trimethoxy-benzoyl)-pyrrolidin-3-yl]-ethyl]-4-phenyl-piperidine-4-carboxylic acid amide] | 1.03 |  | 1.00 |  |  |  |  |  |  |  |  |  |  |  | 
COc1cccc(OC)c1C(=O)N1CCC(CCN2CCC(C(N)=O)(c3ccccc3)CC2)(c2ccc(Cl)c(Cl)c2)C1 (stereo not drawn) [Example 5A, 1-[2-[3-(3,4-dichloro-phenyl)-1-(2,6-dimethoxy-benzoyl)-pyrrolidin-3-yl]-ethyl]-4-phenyl-piperidine-4-carboxylic acid amide hydrochloride] | 1.17 | 7.32 | 1.11 | 7.35 |  |  |  |  |  |  |  |  |  |  | DYSPNEA INCIDENCE ([4]; 5 mg/kg): 60%; DYSPNEA ONSET ([4]; 5 mg/kg): 654 ± 37 s; DYSPNEA INCIDENCE ([4]; 10 mg/kg): 54%; DYSPNEA ONSET ([4]; 10 mg/kg): 608 ± 65 s
COc1cccc(OC)c1C(=O)N1CCC(CCN2CCC(C(N)=O)(c3ccccc3)CC2)(c2ccc(Cl)c(Cl)c2)C1 (stereo not drawn) [Example 5] |  |  |  |  | 4.4 ± 1.2 | 66.7 | 253 ± 47 | 0.7 ± 0.1 | 4.9 ± 1.9 | 85.7 | 384 ± 85 | 0.5 ± 0.1 | antagonize the effects of capsaicin aerosol when administered orally | inhibit the endogenous tachykinins released by capsaicin aerosol | 
